# Key:
# hG9a = biological target: T1, hG9a (Homo sapiens, UniProt Q96KQ7); test: Methylation of HA-hG9a in Cos-7 cells (pan met-K immunoprecipitation/immunoblot); assay type: cell-based, African green monkey; conditions: Cos-7 cells, 2 μM inhibitor, 24 h
# T1 construct: transfected with a plasmid encoding full length HA-hG9a and treated with 2 μM UNC0646; expressed in transfected cells; host or cells: Cos-7
# T1 sequence (Q96KQ7 1-1210): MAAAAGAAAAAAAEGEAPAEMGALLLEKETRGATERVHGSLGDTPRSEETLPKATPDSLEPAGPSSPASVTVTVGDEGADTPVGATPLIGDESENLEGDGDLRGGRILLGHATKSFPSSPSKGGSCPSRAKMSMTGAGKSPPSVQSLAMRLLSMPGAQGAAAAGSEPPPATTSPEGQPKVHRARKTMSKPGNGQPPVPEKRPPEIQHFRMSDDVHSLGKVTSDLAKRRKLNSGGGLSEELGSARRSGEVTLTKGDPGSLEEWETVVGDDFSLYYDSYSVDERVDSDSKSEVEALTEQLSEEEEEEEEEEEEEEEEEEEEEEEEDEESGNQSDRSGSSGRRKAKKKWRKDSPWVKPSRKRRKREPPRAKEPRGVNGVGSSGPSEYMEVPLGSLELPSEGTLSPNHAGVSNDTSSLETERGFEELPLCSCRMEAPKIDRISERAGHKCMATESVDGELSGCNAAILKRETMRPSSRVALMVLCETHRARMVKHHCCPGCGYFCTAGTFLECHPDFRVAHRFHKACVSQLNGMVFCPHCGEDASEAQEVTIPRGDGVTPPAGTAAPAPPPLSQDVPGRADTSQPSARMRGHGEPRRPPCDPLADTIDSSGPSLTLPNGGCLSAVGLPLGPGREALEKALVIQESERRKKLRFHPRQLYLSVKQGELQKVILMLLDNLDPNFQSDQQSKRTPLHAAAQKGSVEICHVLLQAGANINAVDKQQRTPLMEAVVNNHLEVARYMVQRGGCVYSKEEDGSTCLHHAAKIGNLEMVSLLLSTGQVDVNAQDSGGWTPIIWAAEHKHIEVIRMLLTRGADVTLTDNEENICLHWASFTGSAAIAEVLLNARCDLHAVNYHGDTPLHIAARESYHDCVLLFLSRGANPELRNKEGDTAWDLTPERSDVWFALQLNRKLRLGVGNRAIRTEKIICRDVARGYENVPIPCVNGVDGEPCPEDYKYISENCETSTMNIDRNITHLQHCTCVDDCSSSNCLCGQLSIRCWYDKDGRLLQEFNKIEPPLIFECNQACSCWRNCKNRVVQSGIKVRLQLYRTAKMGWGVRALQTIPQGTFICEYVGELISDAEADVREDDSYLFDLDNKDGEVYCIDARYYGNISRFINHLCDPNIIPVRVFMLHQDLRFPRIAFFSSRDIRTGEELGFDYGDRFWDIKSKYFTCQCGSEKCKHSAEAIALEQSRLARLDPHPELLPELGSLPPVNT
# Method: Cells were transiently transfected (where indicated) using Lipofectamine 2000 (Invitrogen) with 5 μg each of the indicated plasmids according to the manufacturer's protocol. […] Protein extracts were incubated with 1 μg of the indicated primary antibodies overnight at 4° C. with shaking. Protein A/G Plus Agarose (Santa Cruz sc-2003) beads were added and the mixture was incubated 2 hr at 4° C. The immunoprecipitates were separated on SDS-PAGE. Immunoblotting was conducted with primary antibodies against HA epitope (3F10 Roche Applied Science); G9a (G6919), FLAG (F1804), (3-actin (A5441), or GAPDH (G9545) from Sigma; aurora kinase B (ab2254), HP1γ (ab10480), HP1γ (ab56978), phospho-593-HP1γ (ab45270) or pan methyllysine (ab23366) from Abcam; GR (sc-8992) from Santa Cruz; GLP (09-078), or pan phospho-threonine (AB1607) from Millipore; phospho-S211-GR (#4161), H3K9me3 (#13969), H3S10ph (#53348), Histone H3 (#4499) from Cell signaling; or E-cadherin (610182) from BD transduction laboratories. Secondary antibodies from Santa Cruz Biotechnology (anti-rat) and Promega (anti-rabbit and anti-mouse) were used for chemiluminescence detection using Super Signal West Dura (Thermo Scientific) for proteins with low expression levels and ECL prime detection reagent (Amersham) for all other proteins according to the manufacturers' instructions. In immunoprecipitation experiments 3% of the input of each sample was analyzed by immunoblot using the antibodies listed.
# Lysates were immunoprecipitated (IP) with pan met-K antibody and immunoblotted with HA antibody (top), or the usage of the two antibodies was reversed (bottom). Expression of HA-tagged proteins and β-actin (loading control) in the unfractionated extracts is shown at the bottom (Input). For FIG. 17D, Cos-7 cells were transfected with a plasmid encoding full length HA-hG9a and treated with 2 μM UNC0646 or vehicle DMSO for 24 h. Lysates were immunoprecipitated with pan met-K antibody and immunoblotted with HA antibody (top), or the usage of the two antibodies was reversed (bottom).
# Lysates were immunoprecipitated with pan met-K antibody and immunoblotted with HA antibody (top).
# hGLP = biological target: T2, hGLP (Homo sapiens, UniProt Q9H9B1); test: Methylation of HA-hGLP in Cos-7 cells (pan met-K immunoprecipitation/immunoblot); assay type: cell-based, African green monkey; conditions: 2 μM, 24 h
# T2 construct: expressed in transfected cells; host or cells: Cos-7
# Method: Cos-7 or A549 cells were seeded on 10-cm dishes the day before transfection. Cells were transiently transfected (where indicated) using Lipofectamine 2000 (Invitrogen) with 5 μg each of the indicated plasmids according to the manufacturer's protocol. […] Protein extracts were incubated with 1 μg of the indicated primary antibodies overnight at 4° C. with shaking. Protein A/G Plus Agarose (Santa Cruz sc-2003) beads were added and the mixture was incubated 2 hr at 4° C. The immunoprecipitates were separated on SDS-PAGE. […] In immunoprecipitation experiments 3% of the input of each sample was analyzed by immunoblot using the antibodies listed. […]
# T2 sequence (Q9H9B1 whole entry): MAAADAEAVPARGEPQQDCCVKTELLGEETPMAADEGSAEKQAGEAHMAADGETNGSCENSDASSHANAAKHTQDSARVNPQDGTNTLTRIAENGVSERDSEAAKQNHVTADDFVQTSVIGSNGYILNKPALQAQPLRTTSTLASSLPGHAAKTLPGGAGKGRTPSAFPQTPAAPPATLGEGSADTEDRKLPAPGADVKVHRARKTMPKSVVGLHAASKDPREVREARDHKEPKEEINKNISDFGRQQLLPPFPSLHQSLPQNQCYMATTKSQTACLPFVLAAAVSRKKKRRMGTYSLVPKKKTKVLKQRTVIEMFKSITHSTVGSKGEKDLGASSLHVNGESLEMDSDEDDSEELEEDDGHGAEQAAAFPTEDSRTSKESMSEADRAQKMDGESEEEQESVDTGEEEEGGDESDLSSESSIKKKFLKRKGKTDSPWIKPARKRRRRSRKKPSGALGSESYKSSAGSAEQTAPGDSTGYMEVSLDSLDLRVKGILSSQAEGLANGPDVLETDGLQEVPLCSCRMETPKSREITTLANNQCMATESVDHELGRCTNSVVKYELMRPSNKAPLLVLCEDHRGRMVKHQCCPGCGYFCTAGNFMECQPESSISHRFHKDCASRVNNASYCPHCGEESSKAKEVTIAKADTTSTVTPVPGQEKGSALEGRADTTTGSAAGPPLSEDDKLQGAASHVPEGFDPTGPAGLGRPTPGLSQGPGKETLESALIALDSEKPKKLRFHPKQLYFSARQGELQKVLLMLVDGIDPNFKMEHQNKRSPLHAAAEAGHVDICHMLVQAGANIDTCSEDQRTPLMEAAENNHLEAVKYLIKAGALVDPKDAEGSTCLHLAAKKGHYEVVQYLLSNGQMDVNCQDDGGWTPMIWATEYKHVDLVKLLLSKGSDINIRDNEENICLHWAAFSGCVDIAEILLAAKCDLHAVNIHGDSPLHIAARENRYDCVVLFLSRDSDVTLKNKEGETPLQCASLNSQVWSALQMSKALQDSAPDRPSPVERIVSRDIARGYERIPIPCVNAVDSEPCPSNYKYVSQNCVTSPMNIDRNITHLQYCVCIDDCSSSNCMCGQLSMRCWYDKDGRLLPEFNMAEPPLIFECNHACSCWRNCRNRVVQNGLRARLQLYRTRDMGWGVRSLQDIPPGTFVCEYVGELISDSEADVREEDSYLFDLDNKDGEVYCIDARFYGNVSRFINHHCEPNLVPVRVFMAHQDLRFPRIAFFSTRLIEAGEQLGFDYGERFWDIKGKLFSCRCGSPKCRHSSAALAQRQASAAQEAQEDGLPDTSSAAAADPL
smiles,measurement,setting,value
COc1cc2c(NC3CCN(C4CCCCC4)CC3)nc(N3CCCN(C(C)C)CC3)nc2cc1OCCCN1CCCCC1 [UNC0646],pan-methyllysine antibody signal on wild type hG9a,hG9a,strongly decreased
same,GLP methylation in cells,hGLP,reduced

# — patent US20200181284A1, “EPIGENETIC INHIBITORS FOR SENSITIZING HEMATOLOGIC OR OTHER MALIGNANCIES TO GLUCOCORTICOID THERAPY” (UNIVERSITY OF SOUTHERN CALIFORNIA, priority 2017, published 2020)
